Measurements as given in patent US7872014B2, “Anaplastic lymphoma kinase modulators and methods of use” (Exelixis, Inc., priority 2003, dated 2011).

target: T1, ALK (baculovirus expressed human ALK kinase domain F1098-K1410) (Homo sapiens, UniProt Q9UM73); assay: Luciferase-Coupled Chemiluminescent Kinase assay (LCCA), ALK biochemical activity; conditions: inhibition of ALK; mean values; 1 μM ATP, 4 μM poly-AEKY, 12 nM ALK, 2 hours ambient temperature
T1 construct: baculovirus expressed human ALK kinase domain F1098-K1410; made in house
T1 sequence (Q9UM73 1098-1410): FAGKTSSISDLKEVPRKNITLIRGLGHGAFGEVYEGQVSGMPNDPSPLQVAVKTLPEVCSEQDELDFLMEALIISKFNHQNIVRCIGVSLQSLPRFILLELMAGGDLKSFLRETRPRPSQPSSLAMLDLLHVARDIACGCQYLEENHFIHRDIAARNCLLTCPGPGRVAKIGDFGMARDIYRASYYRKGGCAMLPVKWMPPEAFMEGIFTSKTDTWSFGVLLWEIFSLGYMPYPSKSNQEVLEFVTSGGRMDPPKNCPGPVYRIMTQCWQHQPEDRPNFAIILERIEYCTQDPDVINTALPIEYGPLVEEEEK
How it was run: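 Luciferase-coupled readout of ATP remaining after reaction of 12 nM ALK kinase domain with 1 μM ATP and 4 μM poly-AEKY, Tris-HCl pH 7.5 buffer with MgCl2 and MnCl2. Incubated 2 h at ambient temperature; inhibition derived from ATP consumption across serial compound dilutions.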

Compared with `Cc1n[nH]c2nc(-c3ccc(O)c(Cl)c3)c3ccc4c(c3c12)OCCO4` [Example 145, 2-chloro-4-(11-methyl-2,3-dihydro-9H-[1,4]dioxino[2,3-f]pyrazolo[3,4-c]isoquinolin-7-yl)phenol], `Cc1n[nH]c2nc(-c3cccc(Cl)c3)c3ccc4c(c3c12)OCCO4` [Example 149, 7-(3-chlorophenyl)-11-methyl-2,3-dihydro-9H-[1,4]dioxino[2,3-f]pyrazolo[3,4-c]isoquinoline] is higher in IC50: no more than 99 nM for the first, greater than 2000 nM for the second. The first is the more potent here.

`Cc1n[nH]c2nc(-c3cc(Cl)c(O)cc3F)c3ccc4c(c3c12)OCCO4` [Example 146, 2-chloro-5-fluoro-4-(11-methyl-2,3-dihydro-9H-[1,4]dioxino[2,3-f]pyrazolo[3,4-c]isoquinolin-7-yl)phenol] and `Cc1n[nH]c2nc(-c3cc(Cl)c(O)cc3F)c3c(F)cc4c(c3c12)OCCO4` [Example 165, 2-chloro-5-fluoro-4-(6-fluoro-11-methyl-2,3-dihydro-9H-[1,4]dioxino[2,3-f]pyrazolo[3,4-c]isoquinolin-7-yl)phenol] cannot be ordered by IC50: no more than 99 nM for the first, no more than 99 nM for the second.

`COc1cc2c(c(-c3ccc(O)c(Cl)c3)nc3[nH]nc(C)c32)c(OC)c1OC` [Example 147, 2-chloro-4-[1-methyl-6,7,8-tris(methyloxy)-3H-pyrazolo[3,4-c]isoquinolin-5-yl]phenol] and `COCCOc1cc2c(c(-c3ccc(O)c(Cl)c3)nc3[nH]nc(C)c32)c(F)c1OC` [Example 179, 2-chloro-4-(6-fluoro-1-methyl-7-(methyloxy)-8-{[2-(methyloxy)ethyl]oxy}-3H-pyrazolo[3,4-c]isoquinolin-5-yl)phenol] cannot be ordered by IC50: no more than 99 nM for the first, no more than 99 nM for the second.

First: COCCOc1cc(F)c2c(-c3cc(Br)c(O)cc3F)nc3[nH]nc(C)c3c2c1F [Example 148, 2-bromo-4-(6,9-difluoro-1-methyl-8-{[2-(methyloxy)ethyl]oxy}-3H-pyrazolo[3,4-c]isoquinolin-5-yl)-5-fluorophenol]
Second: COCCOc1cc(F)c2c(-c3ccccc3F)nc3[nH]nc(C)c3c2c1F [Example 156, 6,9-difluoro-5-(2-fluorophenyl)-1-methyl-8-{[2-(methyloxy)ethyl]oxy}-3H-pyrazolo[3,4-c]isoquinoline]
The IC50 of the first is lower: no more than 99 nM for the first, greater than 2000 nM for the second.

`Cc1n[nH]c2nc(-c3cc(Cl)c(O)cc3F)c3c(F)c4c(cc3c12)OCCO4` [Example 150, 2-chloro-5-fluoro-4-(6-fluoro-1-methyl-8,9-dihydro-3H-[1,4]dioxino[2,3-g]pyrazolo[3,4-c]isoquinolin-5-yl)phenol] and `Cc1n[nH]c2nc(-c3cc(Cl)c(O)cc3F)c3c(F)c4c(c(F)c3c12)OCCO4` [Example 158, 2-chloro-4-(6,11-difluoro-1-methyl-8,9-dihydro-3H-[1,4]dioxino[2,3-g]pyrazolo[3,4-c]isoquinolin-5-yl)-5-fluorophenol] cannot be ordered by IC50: no more than 99 nM for the first, no more than 99 nM for the second.

`COc1cc2c(-c3ccc(O)c(Cl)c3)nc3[nH]nc(C)c3c2cc1OCC1CCCO1` (stereo not shown) [Example 151, 2-chloro-4-{1-methyl-7-(methyloxy)-8-[(tetrahydrofuran-2-ylmethyl)oxy]-3H-pyrazolo[3,4-c]isoquinolin-5-yl}phenol] and `COc1cc2c(-c3ccc(O)c(Cl)c3)nc3[nH]nc(C)c3c2cc1OCC1CCCCO1` (stereo not shown) [Example 152, 2-chloro-4-{1-methyl-7-(methyloxy)-8-[(tetrahydro-2H-pyran-2-ylmethyl)oxy]-3H-pyrazolo[3,4-c]isoquinolin-5-yl}phenol] cannot be ordered by IC50: no more than 99 nM for the first, no more than 99 nM for the second.

First: COc1cc2c(-c3ccc(O)c(Cl)c3)nc3[nH]nc(C)c3c2cc1OCC(F)(F)F [Example 153, 2-chloro-4-{1-methyl-7-(methyloxy)-8-[(2,2,2-trifluoroethyl)oxy]-3H-pyrazolo[3,4-c]isoquinolin-5-yl}phenol]
Second: CCOCCOc1cc2c(cc1OC)c(-c1ccc(O)c(Cl)c1)nc1[nH]nc(C)c12 [Example 162, 2-chloro-4-[8-{[2-(ethyloxy)ethyl]oxy}-1-methyl-7-(methyloxy)-3H-pyrazolo[3,4-c]isoquinolin-5-yl]phenol]
The IC50 of the first is higher: 100 to 999 nM for the first, no more than 99 nM for the second.

`COc1c(OC)c(F)c2c(c(-c3cc(Cl)c(O)cc3F)nc3[nH]nc(C)c32)c1OC` [Example 154, 2-chloro-5-fluoro-4-[9-fluoro-1-methyl-6,7,8-tris(methyloxy)-3H-pyrazolo[3,4-c]isoquinolin-5-yl]phenol] and `Cc1n[nH]c2nc(-c3ccc(O)c(Cl)c3)c3c(F)cc(O)c(F)c3c12` [Example 155, 5-(3-chloro-4-hydroxyphenyl)-6,9-difluoro-1-methyl-3H-pyrazolo[3,4-c]isoquinolin-8-ol] cannot be ordered by IC50: no more than 99 nM for the first, no more than 99 nM for the second.

`Cc1n[nH]c2nc(-c3ccc(O)c(Cl)c3)c3c(F)cc(OC(F)F)c(F)c3c12` [Example 157, 2-chloro-4-{8-[(difluoromethyl)oxy]-6,9-difluoro-1-methyl-3H-pyrazolo[3,4-c]isoquinolin-5-yl}phenol] and `Cc1n[nH]c2nc(-c3ccc(O)c(Cl)c3)c3c(F)cc(OCC4CCN(C)CC4)c(F)c3c12` [Example 169, 2-chloro-4-(6,9-difluoro-1-methyl-8-{[(1-methylpiperidin-4-yl)methyl]oxy}-3H-pyrazolo[3,4-c]isoquinolin-5-yl)phenol] cannot be ordered by IC50: no more than 99 nM for the first, no more than 99 nM for the second.

First: Cc1n[nH]c2cc(-c3ccc(O)cc3)c3ccccc3c12 [Example 159, 4-(1-methyl-3H-benzo[e]indazol-5-yl)phenol]
Second: CCc1c(OC)ccc2c(-c3ccc(O)c(Cl)c3)nc3[nH]nc(C)c3c12 [Example 168, 2-chloro-4-[9-ethyl-1-methyl-8-(methyloxy)-3H-pyrazolo[3,4-c]isoquinolin-5-yl]phenol]
The IC50 of the first is higher: 100 to 999 nM for the first, no more than 99 nM for the second. The second is the more potent here.

First: Cc1n[nH]c2nc(-c3ccccc3F)c3c(F)cc4c(c3c12)OCCO4 [Example 160, 6-fluoro-7-(2-fluorophenyl)-11-methyl-2,3-dihydro-9H-[1,4]dioxino[2,3-f]pyrazolo[3,4-c]isoquinoline]
Second: Cc1n[nH]c2nc(-c3ccc(O)cc3F)c3c(F)cc4c(c3c12)OCCO4 [Example 164, 3-fluoro-4-(6-fluoro-11-methyl-2,3-dihydro-9H-[1,4]dioxino[2,3-f]pyrazolo[3,4-c]isoquinolin-7-yl)phenol]
The IC50 of the first is higher: 100 to 999 nM for the first, no more than 99 nM for the second. The second is the more potent here.

`COc1cc2c(-c3ccc(O)c(Cl)c3)nc3[nH]nc(C)c3c2cc1OCC1CCOCC1` [Example 161, 2-chloro-4-{1-methyl-7-(methyloxy)-8-[(tetrahydro-2H-pyran-4-ylmethyl)oxy]-3H-pyrazolo[3,4-c]isoquinolin-5-yl}phenol] and `COc1cc2c(-c3ccc(O)c(Cl)c3)nc3[nH]nc(C)c3c2cc1OC1CCCC1` [Example 166, 2-chloro-4-[8-(cyclopentyloxy)-1-methyl-7-(methyloxy)-3H-pyrazolo[3,4-c]isoquinolin-5-yl]phenol] cannot be ordered by IC50: no more than 99 nM for the first, no more than 99 nM for the second.

`COCCOc1cc2c(cc1C(C)C)c(-c1ccc(O)c(Cl)c1)nc1[nH]nc(C)c12` [Example 167, 2-chloro-4-(1-methyl-7-(1-methylethyl)-8-{[2-(methyloxy)ethyl]oxy}-3H-pyrazolo[3,4-c]isoquinolin-5-yl)phenol] and `COCCOc1cc(F)c2c(-c3ccc(O)c(Cl)c3)nc3[nH]nc(C)c3c2c1OCCOC` [Example 172, 2-chloro-4-(6-fluoro-1-methyl-8,9-bis{[2-(methyloxy)ethyl]oxy}-3H-pyrazolo[3,4-c]isoquinolin-5-yl)phenol] cannot be ordered by IC50: no more than 99 nM for the first, no more than 99 nM for the second.

Going from `COc1c(F)cc2c(c(-c3ccc(O)c(Cl)c3)nc3[nH]nc(C)c32)c1O` [Example 170, 5-(3-chloro-4-hydroxyphenyl)-8-fluoro-1-methyl-7-(methyloxy)-3H-pyrazolo[3,4-c]isoquinolin-6-ol] to `COc1ccc(-c2nc3[nH]nc(C)c3c3cc(F)c(OC)c(O)c23)cc1Cl` [Example 174, 5-[3-chloro-4-(methyloxy)phenyl]-8-fluoro-1-methyl-7-(methyloxy)-3H-pyrazolo[3,4-c]isoquinolin-6-ol], the IC50 rises from no more than 99 nM to greater than 2000 nM.

First: COc1c(OCC2CCN(C)CC2)cc2c(c(-c3ccc(O)c(Cl)c3)nc3[nH]nc(C)c32)c1F [Example 171, 2-chloro-4-(6-fluoro-1-methyl-7-(methyloxy)-8-{[(1-methylpiperidin-4-yl)methyl]oxy}-3H-pyrazolo[3,4-c]isoquinolin-5-yl)phenol]
Second: COc1ccc(-c2nc3[nH]nc(C)c3c3cc(OCC4CCN(C)CC4)c(OC)c(F)c23)cc1Cl [Example 173, 5-[3-chloro-4-(methyloxy)phenyl]-6-fluoro-1-methyl-7-(methyloxy)-8-{[(1-methylpiperidin-4-yl)methyl]oxy}-3H-pyrazolo[3,4-c]isoquinoline]
The IC50 of the first is lower: no more than 99 nM for the first, 1000 to 2000 nM for the second.

`COc1c(OCCN2CCCCC2)cc2c(c(-c3ccc(O)c(Cl)c3)nc3[nH]nc(C)c32)c1F` [Example 176, 2-chloro-4-{6-fluoro-1-methyl-7-(methyloxy)-8-[(2-piperidin-1-ylethyl)oxy]-3H-pyrazolo[3,4-c]isoquinolin-5-yl}phenol] and `CCN1CCN(CCOc2cc3c(c(-c4ccc(O)c(Cl)c4)nc4[nH]nc(C)c43)c(F)c2OC)CC1` [Example 177, 2-chloro-4-[8-{[2-(4-ethylpiperazin-1-yl)ethyl]oxy}-6-fluoro-1-methyl-7-(methyloxy)-3H-pyrazolo[3,4-c]isoquinolin-5-yl]phenol] cannot be ordered by IC50: no more than 99 nM for the first, no more than 99 nM for the second.

`CCN(CC)CCOc1cc2c(c(-c3ccc(O)c(Cl)c3)nc3[nH]nc(C)c32)c(F)c1OC` [Example 178, 2-chloro-4-[8-{[2-(diethylamino)ethyl]oxy}-6-fluoro-1-methyl-7-(methyloxy)-3H-pyrazolo[3,4-c]isoquinolin-5-yl]phenol] and `COc1c(OCC2CCN(C)CC2)cc(F)c2c(-c3ccc(O)c(Cl)c3)nc3[nH]nc(C)c3c12` [Example 182, 2-chloro-4-(6-fluoro-1-methyl-9-(methyloxy)-8-{[(1-methylpiperidin-4-yl)methyl]oxy}-3H-pyrazolo[3,4-c]isoquinolin-5-yl)phenol] cannot be ordered by IC50: no more than 99 nM for the first, no more than 99 nM for the second.
